Data reported in patent US7060486B2, “Inhibition of sulfate-reducing-bacteria-mediated degradation using bacteria which secrete antimicrobials” (priority 1998, dated 2006).
“Also recorded” adds a separate entry of the source. Bridge positions count the residues as written; N and C are the ends. Square brackets hold non-standard residues; d marks the D form. Peptide text beside a SMILES is read from it. * marks the point of attachment. X1 = CC[C@H](C)CCCCC(=O)*; Dab = NCC[C@H](N)C(=O)O

Key:
D. vulgaris (ATCC 29579) = assay: SRB inhibitory assay: viability after one-hour exposure, MPN technique; type: cell-based; conditions: one-hour exposure
Description: (§1) D. vulgaris (ATCC 29579) and D. gigas (ATCC 19364) were obtained from the American Type Culture Collection and cultivated in 15 mL screwcap tubes with 10 mL of modified Baar's medium (ATCC medium 1249) supplemented with 100 μL each of the oxygen-scavengers 4% sodium sulfide and Oxyrase (Oxyrase Inc., Mansfeld, Ohio). Initial cultures were grown from −85° C. glycerol stocks; all subsequent cultures were grown with a 3% inoculum from the initial culture maintained at 30° C. without shaking. […] SRB were also cultured periodically in the presence of 0.1% ferrous ammonium sulfate, and the presence of these sulfate-reducers was confirmed by the detection of black iron sulfide in the culture tubes. The desulfoviridin assay was also performed after each MPN assay to confirm the presence of D. vulgaris or D. gigas by its red color under UV light due to the release of the chromophore of the pignment desulfoviridin. (Postgate, 1984).
(§2) For determining the viability indices (Romeo, et al., 1988) of SRB, a late-exponential phase culture (O.D600 0.16 to 0.19 which corresponded to an initial cell number of 5–9×10^4 cells/mL) was exposed to various concentrations of antimicrobials for 1 hour at 30° C. One mL of cells was harvested, washed once in fresh modified Baar's medium to remove cellular debris, and resuspended in 1 mL of fresh modified Baar's medium supplemented with 10 μL each of Oxyrase (Oxyrase Inc., Mansfeld, Ohio) and 4% sodium sulphide. Aliquots of 450 μL were dispensed in 500 μL sterile eppendorf tubes and appropriate amounts of antimicrobials added and incubated at 30° C. The effectiveness of treatment was determined by the multiple-tube most-probable-number (MPN) fermentation technique. (Anonymous. Multiple-tube fermentation technique for members of the coliform group, pp. 9–45 to 9–51. In A. E. Greenberg, L. S. Clesceri, and A. D. Eaton (eds.), Standard Methods for the Examination of Water and Wastewater, 18 ed. American Public Health Association, American Water Works Association, and Water Pollution Control Federation, New York (1992)) (hereafter, Greenberg, 1992).
(§3) The MPN test for enumerating SRB was performed in three 12 mL tubes with a 1000 μL inoculum of SRB, three 12 mL tubes with a 500 μL inoculum, and three 12 mL tubes with a 100 μL inoculum. All nine tubes contained a final volume of 10 mL of modified Baar's medium supplemented with 100 μL each of 4% sodium sulfide and Oxyrase (Oxyrase Inc., Mansfeld, Ohio). The tubes were monitored for 72 hours to determine the number of tubes that were positive for growth. Growth was determined by the increase in culture turbidity, and the MPN index/mL was calculated using the Thomas formula. (Greenberg 1992).

[1] = system: SRB (D. vulgaris) on SAE 1018 mild steel; assay: Continuous reactor with SAE 1018 mild steel and SRB, electrochemical impedance spectroscopy
From the text: (§4) A continuous reactor was used to develop biofilms on metal surfaces as previously described (Jayaraman et al., 1997c). Electrochemical impedance spectroscopy (EIS) was used to obtain impedance data in at least duplicate experiments using a Solarton-Schlumberger electrochemical measurement unit (SI 1280, Schlumberger Technical Instruments Division, San Jose, Calif.) interfaced to a Macintosh computer (PowerMac 7100/80, Apple Computers, Cupertino, Calif.) running EISIS electrochemical experimentation software (University of California, Irvine) (THALES, a similar commercial software, can also be used). The open-circuit potential (OCP) was measured as the potential between the metal specimen and the reference electrode (Ag/AgCl), and the polarization resistance was determined as the dc limit of the impedance using the ANALEIS software developed by Mansfeld et al. (ASTM Special Technical Protocol 1154:186 (1992)). Continuous culture corrosion rates were estimated from the experimental polarization resistance Rp based on the Stern-Geary equation Rp=B/Icorr, where B is a parameter depending on the Tafel slopes and icorr is the corrosion current density which can be converted into a corrosion rate using Faraday's law (Mansfeld, F., The polarization resistance technique for measuring corrosion currents, In Fontana, M. G., Staehle, R. W. (ed.), Advances in Corrosion Science and Technology, Plenum Press, New York (1976)).
A 3% (vol/vol) SRB inoculum (culture age 24–48 hours) was added to the reactor after 3 to 5 days of aerobic biofilm development. […] All antimicrobials were simultaneously added to the nutrient feed and the reactor at appropriate concentrations.

D. vulgaris [2] = conditions: literature (Saleh 1964/Postgate 1984; Odom and Singleton 1993), suspension cultures; cited from earlier work
P. fragi K = assay: Growth of P. fragi K in overnight suspension cultures with antimicrobials; type: cell-based; conditions: 100 μg/mL, overnight suspension culture
D. vulgaris [3] = assay: Susceptibility of SRB cultures to antibiotics and inorganics; type: cell-based
Description: (§5) D. vulgaris and D. gigas were incubated in the presence of various antimicrobial peptides, and their viability after one-hour exposure was determined. […] D. gigas was inhibited by anthraquinone at 100 μg/mL (Cooling et al., 1996), and both SRB were inhibited by sodium molybdate at 100 μg/mL. This is similar to the observation of Saleh, et al., 1964, who surveyed nearly 200 compounds for their SRB-inhibitory activity and noted that SRB show a high degree of resistance to inhibitory compounds (Id.).

[4] = system: SRB (D. vulgaris) on 304 stainless steel; assay: Continuous reactor with 304 stainless steel and SRB, electrochemical impedance spectroscopy
Description: Batch culture corrosion experiments using SAE 1018 mild steel coupons (2.5 cm diameter, 1.2 mm thick) were performed in triplicates in 250 mL Erlenmeyer flasks at 30° C. without shaking as described previously (Jayaraman et al., 1997a). A continuous reactor (Jayaraman et al., 1997c) was also used to develop biofilms on 304 stainless steel and monitor corrosion using electrochemical impedance spectroscopy (EIS) in a minimum of two independent reactors using a Solarton-Schlumberger electrochemical measurement unit (SI 1280, Schlumberger Technical Instruments Division, San Jose, Calif.) interfaced to a Macintosh computer (PowerMac 7100/80, Apple Computers, Cupertino, Calif.) running EISIS electrochemical experimentation software (University of California, Irvine) (similar commercial software, THALES, can also be used). The open circuit potential (OCP) was measured as the potential between the metal specimen and a Ag/AgCl reference electrode, and the polarization resistance (Rp) was determined as the low-frequency value of the impedance (where the imaginary part of the impedance was zero or negligible). Continuous culture corrosion rates were estimated as the inverse of the polarization resistance (Macdonald, D. D. and M. C. H. McCubre, Applications of impedance spectroscopy, p. 262–267. In J. R. Macdonald (ed.), Impedance spectroscopy: Emphasizing solid materials and systems, John Wiley & Sons, New York (1987); Stem, M., Journal of Electrochemical Society, 105(11):638–647 (1958)).
as §4, with “Continuous culture corrosion rates were estimated from the experimental polarization resistance Rp based on the Stern-Geary equation Rp=B/Icorr, where B is a parameter depending on the Tafel slopes and icorr is the corrosion current density which can be converted into a corrosion rate using Faraday's law (Mansfeld, F., The polarization resistance technique for measuring corrosion currents, In Fontana, M. G., Staehle, R. W. (ed.), Advances in Corrosion Science and Technology, Plenum Press, New York (1976)).” left out

D. gigas = assay: Susceptibility of SRB cultures to antibiotics and inorganics; type: cell-based
Description: as §5

B. subtilis BE1500 = assay: Susceptibility of host strains to purified antimicrobials (plate counts); type: cell-based
Description: (§6) To determine the susceptibility of the hosts B. subtilis BE1500 and B. polymyxa to the expressed antimicrobials, these strains were grown from a single colony in 25 mL of LB medium with shaking at 37° C. to an O.D600 of 0.40–0.45. One mL aliquots were collected, washed with fresh LB medium and resuspended in 100 μL fresh LB medium in sterile eppendorf tubes. The antimicrobials indolicidin and bactenecin were added (50–100 μg/mL) and the tubes were incubated at 30° C. for one hour without shaking. Appropriate dilutions were spread on LB agar plates and incubated overnight at 37° C. to determine the extent of survival. The results were confirmed by performing two independent experiments.

B. polymyxa 10401 = assay: as above; type: cell-based; conditions: 50 μg/mL, one hour exposure at 30° C.
Description: as §6

B. subtilis WB600 = assay: as above; type: cell-based; conditions: 50 μg/mL, one hour exposure at 30° C.
Escherichia coli = conditions: 100 μg/mL; cited from earlier work
D. gigas (ATCC 19364) = assay: SRB inhibitory assay: viability after one-hour exposure, MPN technique; type: cell-based; conditions: 100 μg/mL, one-hour exposure
Description: as §1, §2, §3

[5] = 100 μg/mL added to P. fragi K biofilm 24 hours before D. vulgaris
[6] = 100 μg/mL added to P. fragi K biofilm before D. vulgaris

CC[C@H](C)[C@H](N)C(=O)N[C@@H](CC(C)C)C(=O)N1CCC[C@H]1C(=O)N[C@@H](Cc1c[nH]c2ccccc12)C(=O)N[C@@H](CCCCN)C(=O)N[C@@H](Cc1c[nH]c2ccccc12)C(=O)N1CCC[C@H]1C(=O)N[C@@H](Cc1c[nH]c2ccccc12)C(=O)N[C@@H](Cc1c[nH]c2ccccc12)C(=O)N1CCC[C@H]1C(=O)N[C@@H](Cc1c[nH]c2ccccc12)C(=O)N[C@@H](CCCN=C(N)N)C(=O)N[C@@H](CCCN=C(N)N)C(N)=O [Ind-NH2, indolicidin]
reduction of viability (D. vulgaris (ATCC 29579); 25 μg/mL, late-exponential-phase culture): 99.3%

CC1(C)S[C@@H]2[C@H](NC(=O)[C@H](N)c3ccccc3)C(=O)N2[C@H]1C(=O)O [ampicillin]
effect on D. vulgaris, in words [1, 5]: completely inhibited
time after D. vulgaris addition without change / increase in Rp [1, 6]: ≥ 100 h
effect on SRB, in words ([1]; antimicrobial added after SRB growth on mild steel): did not change Rp; also recorded: no inhibition of SRB
time to onset of SRB-induced corrosion after ampicillin containing medium was discontinued ([1]; mild steel reactors): ≤ 36 h
concentration that inhibits D. vulgaris (D. vulgaris [2]): 1 µg/mL
growth of P. fragi K, in words (P. fragi K): grew to saturation
concentration that inhibits the strain (D. vulgaris [3]): 20 µg/mL
effect on D. vulgaris, in words [4, 5]: completely inhibited
time after D. vulgaris addition without change in impedance spectra and Rp [4, 6]: ≥ 100 h
effect on SRB, in words ([4]; antimicrobial added to dual-culture reactor after SRB, ampicillin 200 μg/mL, chloramphenicol 100 μg/mL, ammonium molybdate 200 μg/mL): SRB had not been killed

O=C1c2ccccc2C(=O)c2ccccc21 [anthraquinone]
concentration that inhibits the strain (D. gigas): 100 µg/mL

CC[C@H](C)[C@@H]1NC(=O)[C@H](CCCNC(=N)N)NC(=O)[C@@H](NC(=O)[C@H](CC(C)C)NC(=O)[C@@H](N)CCCNC(=N)N)CSSC[C@@H](C(=O)N[C@@H](CCCNC(=N)N)C(=O)O)NC(=O)[C@H](C(C)C)NC(=O)[C@H](CCCNC(=N)N)NC(=O)[C@H]([C@@H](C)CC)NC(=O)[C@H](C(C)C)NC(=O)[C@H](C(C)C)NC1=O [bactenecin] (H-RLCRIVVIRVCR-OH; disulfide 3-11; N-terminus and C-terminus assumed)
factor by which the strain is more resistant to bactenecin than to indolicidin (B. subtilis BE1500): 60
Fold-reduction in cell number (B. subtilis BE1500; 50 μg/mL, one hour exposure at 30° C.): 100
Fold-reduction in cell number (B. polymyxa 10401): 2
Fold-reduction in cell number (B. subtilis WB600): 400
inhibition (Escherichia coli): 95%

O=C(N[C@H](CO)[C@H](O)c1ccc([N+](=O)[O-])cc1)C(Cl)Cl [chloramphenicol]
concentration that inhibits D. vulgaris (D. vulgaris [2]): 3 µg/mL
concentration that inhibits the strain (D. vulgaris [3]): 20 µg/mL

CC[C@H](C)CCCCC(=O)N[C@@H](CCN)C(=O)N[C@H](C(=O)N[C@@H](CCN)C(=O)N[C@H]1CCNC(=O)[C@H]([C@@H](C)O)NC(=O)[C@H](CCN)NC(=O)[C@H](CCN)NC(=O)[C@H](CC(C)C)NC(=O)[C@@H](Cc2ccccc2)NC(=O)[C@H](CCN)NC1=O)[C@@H](C)O [polymyxin B] (X1-[Dab]T[Dab][Dab][Dab][dF]L[Dab][Dab]T; lactam 4-C (inferred); N-terminus assumed)
reduction of viability (D. gigas (ATCC 19364)): approximately 90%
reduction of viability (D. vulgaris (ATCC 29579); 100 μg/mL): approximately 90%
concentration that inhibits D. vulgaris (D. vulgaris [2]): 100 µg/mL

[Na+].[Na+].[O]=[Mo](=[O])([O-])[O-] [sodium molybdate]
concentration that inhibits the strain (D. vulgaris [3]): 100 µg/mL
concentration that inhibits the strain (D. gigas): 100 µg/mL

gramicidin D
reduction of viability (D. gigas (ATCC 19364)): approximately 90%
reduction of viability (D. vulgaris (ATCC 29579); 100 μg/mL): approximately 90%
